Counter-ions that a name gives are not always drawn. Like-named read-outs stand apart in the source and are kept apart here.
Tested on: iCell endothelial cells (human iPSC-derived ECs)
Assay: Tube formation (tubulogenesis) assay in iCell endothelial cells, 18 h
Type: cell-based
Conditions: Homo sapiens, Endothelial cell, 18 hr; for activity at 0.1 µM: 0.10 µM
Procedure: The culture conditions of iCell®-endothelial cells were as reported elsewhere ([Iwata et al. 2017]). Briefly, T75 flasks were coated with a fibronectin solution ( 3 μg/cm^2 ) followed by incubation for 1–2 h. Cells were thawed for 3 min in a 37°C water bath. Thawed cells were added to maintenance medium made of VascuLife VEGF Medium Complete Kit, excluding the supplied FBS, and iCell® Endothelial Cells Medium Supplement. The final formulation of the maintenance medium is detailed in ([Iwata et al. 2017]). The aliquoted fibronectin solution was aspirated from the T75 flasks, and cells were seeded at 1.0×10^4 cells/cm^2 . Cells were maintained at 37°C and 5% CO2 with media changes occurring every 2 d and passaged every 3–4 d using TrypLE™ Express. All experiments were conducted on cells between passages 1 and 5.
Tube formation assays were performed on Geltrex™ LDEV-free reduced growth factor basement membrane using both iCell®-endothelial cells and HUVECs in 384-well format exactly as detailed in Iwata et al. ([2017]). Negative controls included media-only and vehicle control (i.e., 0.5% vol/vol DMSO in cell culture media) wells. Positive assay controls were consistent with previously published reports ([Iwata et al. 2017]) and included TAB ( 50μM ) as a cytotoxic control, and nocodazole ( 0.01–1μM ), suramin ( 0.5–50μM ), histamine ( 0.1–100μM ), and chloroquine ( 1–500μM ) as chemicals associated with specific effects on ECs. Each test chemical was screened in triplicate for each concentration. Briefly, for iCell®-endothelial cells, starvation media consisted of VascuLife® basal medium with 4 mM L-glutamine LifeFactor and 0.1% iCell®-endothelial cells medium supplement. To counter dilution effects, a 2× concentration of the HUVEC maintenance medium supplemented with additional VEGF was created (EGM™-2 BulletKits™ at 2× concentration; also the VEGF component was replaced with 12.5 ng/mL VEGF). Geltrex™ LDEV-free reduced growth factor basement membrane was thawed overnight and dispensed into 384-well plates ( 10μL/well ) with tapping and rotating to evenly coat. The plates were incubated for 1 h in a cell culture incubator at 37°C and 5% CO2 . A 2× PCB plate (containing all of the PCBs and metabolites in dose–response) was prepared in basal media and added, 25μL per well, to the Geltrex™ coated plates. On separate plates, cells were seeded 7,500 (iPSC- ECs) or 3,500 (HUVEC) cells/well. Cells were exposed to chemicals overnight at 37°C and 5% CO2 and stained with 3× concentration of calcein AM ( 25μL /well, 6μmol/L ) for 15 min before imaging. Images were captured at 4× magnification with the FITC filter (calcein AM). Images were analyzed with the angiogenesis module software within MetaXpress™ (Molecular Devices).
Phenotypic responses were quantitatively assessed using concentration–response modeling as detailed elsewhere ([Sirenko et al. 2017]). Briefly, phenotypic readouts were normalized to vehicle controls and fit to a four-parameter logistic model in R studio software (version 3.1.1; R Development Core Team). Following EPA guidance on dose–response modeling, a cutoff of one standard deviation across means of vehicle control (i.e., 0.5% vol/vol DMSO in cell culture media) wells was applied to determine the point-of-departure (POD) values ([U.S. EPA 2012]). In the absence of a concentration–response, the highest tested concentration (i.e., 100μM ) was assigned as “no observable adverse effect level.” The concentration–response assessment R script, as well as templates for vehicle and concentration–response data, are available as a supplement to Sirenko et al. ([2017]). The ability of physicochemical properties to predict differences in PODs were evaluated by multiregression and mixed-effects modeling using R.

[1] = iPSC-EC tube formation, 0.00 µM control = 100.00, read-out: endo.mtl.18hr
[2] = iPSC-EC tube formation, 0.00 µM control = 100.00, read-out: endo.tlps.18hr
[3] = iPSC-EC tube formation, 0.00 µM control = 100.00, read-out: endo.tta.18hr
[4] = iPSC-EC tube formation, 0.00 µM control = 100.00, read-out: endo.ttl.18hr
[5] = iPSC-EC tube formation, top concentration 100.00 µM, read-out: endo.mtl.18hr POD
[6] = iPSC-EC tube formation, top concentration 100.00 µM, read-out: endo.tlps.18hr POD
[7] = iPSC-EC tube formation, top concentration 100.00 µM, read-out: endo.tta.18hr POD
[8] = iPSC-EC tube formation, top concentration 100.00 µM, read-out: endo.ttl.18hr POD
[9] = endothelial cells (endo), tube formation mtl, read-out: POD endo.mtl.18hr
[10] = endothelial cells (endo), tube formation tlps, read-out: POD endo.tlps.18hr
[11] = endothelial cells (endo), tube formation tta, read-out: POD endo.tta.18hr
[12] = endothelial cells (endo), tube formation ttl, read-out: POD endo.ttl.18hr

| Structure (SMILES) | activity at 0.01 µM [1] [%] | activity at 0.01 µM [2] [%] | activity at 0.01 µM [3] [%] | activity at 0.01 µM [4] [%] | activity at 0.1 µM [1] [%] | activity at 0.1 µM [2] [%] | activity at 0.1 µM [3] [%] | activity at 0.1 µM [4] [%] | activity at 1 µM [1] [%] | activity at 1 µM [2] [%] | activity at 1 µM [3] [%] | activity at 1 µM [4] [%] | activity at 10 µM [1] [%] | activity at 10 µM [2] [%] | activity at 10 µM [3] [%] | activity at 10 µM [4] [%] | activity at 100 µM [1] [%] | activity at 100 µM [2] [%] | activity at 100 µM [3] [%] | activity at 100 µM [4] [%] | also measured |
| --- | --- | --- | --- | --- | --- | --- | --- | --- | --- | --- | --- | --- | --- | --- | --- | --- | --- | --- | --- | --- | --- |
| Oc1ccc(O)c(-c2ccc(Cl)cc2)c1 [2',5'-DiOH PCB3] | 99.4 | 100 | 127 | 115 | 104 | 103 | 104 | 98.5 | 62 | 66.5 | 60.7 | 55 | 61.7 | 30.6 | 64.9 | 63 | 58.4 | 7.76 | 0.41 | 0.74 | minimal effective concentration [5]: 0.47 µM; minimal effective concentration [6]: 0.53 µM; minimal effective concentration [7]: 1.63 µM; minimal effective concentration [8]: 1.51 µM |
| Oc1ccc(O)c(-c2ccc(Cl)cc2)c1 [2',5'-diOH-PCB 3, 4-Chloro-2′,5′-dihydroxybiphenyl] |  |  |  |  |  |  |  |  |  |  |  |  |  |  |  |  |  |  |  |  | minimal effective concentration [9]: 0.47 µM; minimal effective concentration [10]: 0.53 µM; minimal effective concentration [11]: 1.63 µM; minimal effective concentration [12]: 1.51 µM |
| Oc1ccccc1-c1ccc(Cl)cc1 [2'-OH PCB3] | 114 | 123 | 120 | 113 | 106 | 118 | 103 | 103 | 100 | 102 | 99.3 | 98.8 | 91.1 | 76.6 | 98 | 91.8 | 54.3 | 20.2 | 18.5 | 21.2 | minimal effective concentration [5]: 13.4 µM; minimal effective concentration [6]: 9.27 µM; minimal effective concentration [7]: 29.9 µM; minimal effective concentration [8]: 23.1 µM |
| Oc1ccccc1-c1ccc(Cl)cc1 [2'-OH-PCB 3] |  |  |  |  |  |  |  |  |  |  |  |  |  |  |  |  |  |  |  |  | minimal effective concentration [9]: 13.4 µM; minimal effective concentration [10]: 9.27 µM; minimal effective concentration [11]: 29.9 µM; minimal effective concentration [12]: 23.1 µM |
| O=S(=O)(O)Oc1cc(Cl)ccc1-c1ccccc1 [2-yl PCB 3 sulfate] | 97.5 | 97.8 | 134 | 124 | 93.9 | 117 | 102 | 93.2 | 91.4 | 118 | 90.6 | 83.8 | 83.6 | 89.9 | 60.9 | 58.8 | 106 | 86.3 | 92.2 | 89 | minimal effective concentration [5]: 100 µM; minimal effective concentration [6]: 100 µM; minimal effective concentration [7]: 100 µM; minimal effective concentration [8]: 100 µM |
| Oc1cccc(-c2ccc(Cl)cc2)c1 [3'-OH PCB3] | 98 | 99.3 | 119 | 114 | 85.4 | 107 | 73 | 72.3 | 88.6 | 76.7 | 71.5 | 69.4 | 59 | 33.8 | 39.4 | 39.8 | 46 | 11.7 | 1.49 | 2.14 | minimal effective concentration [5]: 0.36 µM; minimal effective concentration [6]: 1.03 µM; minimal effective concentration [7]: 0.49 µM; minimal effective concentration [8]: 0.51 µM |
| Oc1cccc(-c2ccc(Cl)cc2)c1 [3'-OH-PCB 3] |  |  |  |  |  |  |  |  |  |  |  |  |  |  |  |  |  |  |  |  | minimal effective concentration [9]: 0.36 µM; minimal effective concentration [10]: 1.03 µM; minimal effective concentration [11]: 0.49 µM; minimal effective concentration [12]: 0.51 µM |
| O=S(=O)(O)Oc1cccc(-c2ccc(Cl)cc2)c1 [3'-PCB 3 sulfate] |  |  |  |  |  |  |  |  |  |  |  |  |  |  |  |  |  |  |  |  | minimal effective concentration [9]: 0.58 µM; minimal effective concentration [10]: 38.6 µM; minimal effective concentration [11]: 11.6 µM; minimal effective concentration [12]: 8.75 µM |

— publication PMC7377239, “Cardiovascular Effects of Polychlorinated Biphenyls and Their Major Metabolites” (Environmental Health Perspectives, 2020)
